The record followed here is patent publication US20160130226A1, “SPIRO-SUBSTITUTED OXINDOLE DERIVATIVES HAVING AMPK ACTIVITY” (BOEHRINGER INGELHEIM INTERNATIONAL GMBH, priority 2013, published 2016).

In one test the target is T1, AMPK beta 1 (Homo sapiens, UniProt Q13131+Q9Y478).
T1 construct: in-cell-ELISA for phospho-ACC (Acetyl-CoA carboxylase 1) in HepG2 cells (liver); endogenous in cells; host or cells: HepG2 (assignment to the beta 1 column inferred)
T1 sequence (Q9Y478 2-270 limits assumed): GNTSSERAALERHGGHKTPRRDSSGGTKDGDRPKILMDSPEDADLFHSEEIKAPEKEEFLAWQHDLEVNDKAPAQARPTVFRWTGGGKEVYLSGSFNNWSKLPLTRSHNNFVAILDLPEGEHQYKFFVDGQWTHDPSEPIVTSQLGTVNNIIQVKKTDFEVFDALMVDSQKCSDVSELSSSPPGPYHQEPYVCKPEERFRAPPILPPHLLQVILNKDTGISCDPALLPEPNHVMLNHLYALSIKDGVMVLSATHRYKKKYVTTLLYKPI
T1 sequence (Q13131 whole entry): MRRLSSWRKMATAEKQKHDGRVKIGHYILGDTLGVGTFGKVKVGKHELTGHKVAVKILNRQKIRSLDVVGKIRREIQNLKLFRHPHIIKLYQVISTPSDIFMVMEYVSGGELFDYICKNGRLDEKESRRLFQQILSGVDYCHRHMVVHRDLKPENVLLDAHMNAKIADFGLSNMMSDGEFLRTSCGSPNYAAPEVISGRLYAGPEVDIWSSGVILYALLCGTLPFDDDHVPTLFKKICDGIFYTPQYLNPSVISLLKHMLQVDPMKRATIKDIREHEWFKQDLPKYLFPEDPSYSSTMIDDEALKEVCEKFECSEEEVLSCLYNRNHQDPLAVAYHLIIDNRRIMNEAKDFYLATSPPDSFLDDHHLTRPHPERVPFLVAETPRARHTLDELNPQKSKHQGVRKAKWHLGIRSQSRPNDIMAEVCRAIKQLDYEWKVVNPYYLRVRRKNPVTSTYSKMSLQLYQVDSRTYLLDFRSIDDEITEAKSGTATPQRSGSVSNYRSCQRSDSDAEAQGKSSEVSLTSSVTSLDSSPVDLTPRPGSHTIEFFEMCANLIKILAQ
T1 sequence (P54619 whole entry partner): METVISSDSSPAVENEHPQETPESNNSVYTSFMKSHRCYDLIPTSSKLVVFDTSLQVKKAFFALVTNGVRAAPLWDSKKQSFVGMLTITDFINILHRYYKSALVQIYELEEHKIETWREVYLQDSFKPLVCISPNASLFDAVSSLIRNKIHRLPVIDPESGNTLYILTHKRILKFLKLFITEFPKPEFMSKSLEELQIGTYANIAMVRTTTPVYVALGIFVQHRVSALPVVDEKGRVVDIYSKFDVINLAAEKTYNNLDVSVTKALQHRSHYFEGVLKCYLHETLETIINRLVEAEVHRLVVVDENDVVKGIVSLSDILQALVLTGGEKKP
The test can be described thus: in-cell-ELISA for phospho-ACC: activation of AMPK, beta 1 (HepG2 cells / C2C12 myotubes). The following applies: 3 μM, 2 h, percentage activation over vehicle control. Type of test: cell-based. The protocol: Activation of AMPK by various compounds were measured using in-cell-ELISA for phospho-ACC (Acetyl-CoA carboxylase 1) in HepG2 cells (liver) and fully differentiated myotubes (C2C12 cells) grown in 96 well plate. Cells were treated with 1 μM, 3 μM or 10 μM of the molecule (Example) for 2 h in serum free DMEM media. After methanol fixation, cells were blocked with BSA followed by addition of anti-phospho ACC antibody (Cell Signaling) and HRP conjugated secondary antibody. Absorbance values taken at 450 nm were normalized with total DNA (Hoechest stain). Results were expressed as percentage activation over vehicle control.
Percentage activation at compound (Example) concentration of 1, 3 or 10 μM for compounds according to the invention are shown in the following table. The number of the compound corresponds to the number of the Example (Ex) in the experimental section.
In general terms: An ELISA detects its analyte on a solid surface through an enzyme-linked reagent.
Turning to `O=C(O)Cc1cccc(C2CC23C(=O)Nc2cc(Cl)c(-c4ccc(-c5ccncc5)cc4)cc23)c1` (centres unmarked) [Example 58], the “Percentage activation of beta 1 at given concentration” value (shortened to “Percentage activation”) was found to be 47% at 3 μM.

With `O=C(O)Cc1cccc(C2CC23C(=O)Nc2cc(Cl)c(-c4ccc(-c5ccncc5)cc4)cc23)c1` (centres unmarked) [Example 61], the “Percentage activation” value was determined as 118% at 3 μM.

The same test, now with this note: 10 μM, 2 h, percentage activation over vehicle control.
For the compound `O=C(O)Cc1cccc(C2CC23C(=O)Nc2cc(Cl)c(-c4ccc(-c5ccccc5O)cn4)cc23)c1` (centres unmarked) [Example 16], the “Percentage activation” value was 23% at 10 μM.

On to `O=C(O)Cc1cccc(C2CC23C(=O)Nc2cc(Cl)c(-c4ccc(-c5ccccc5O)cn4)cc23)c1` (centres unmarked) [Example 17], for which the “Percentage activation” value was determined as 88% at 10 μM.

On to `O=C(O)Cc1cccc(C2CC23C(=O)Nc2cc(Cl)c(-c4ccc(-c5ccccc5O)cn4)cc23)c1` (centres unmarked) [Example 18], for which the “Percentage activation” value was 168% at 10 μM.

As to `Cc1ccc(C2CC23C(=O)Nc2cc(Cl)c(-c4ccc(C5(CO)CC5)cc4)cc23)cc1C(=O)O` (centres unmarked) [Example 44], the “Percentage activation” value stood at 11% at 10 μM.

`Cc1ccc(C2CC23C(=O)Nc2cc(Cl)c(-c4ccc(C5(CO)CC5)cc4)cc23)cc1C(=O)O` (centres unmarked) [Example 45]: the “Percentage activation” value is recorded as 80% at 10 μM.

The same test, now with this note: 2 h, 1 μM, percentage activation over vehicle control, read-out: Percentage activation of beta 1 at given concentration.
`Cc1ccc(C2CC23C(=O)Nc2cc(Cl)c(-c4ccc(-c5ccncc5)cc4)cc23)cc1CC(=O)O` (centres unmarked) [Example 63]: the activation at 1 µM worked out at 42%.

The test is the same for the next values; noted with them: 2 h, 3 μM, percentage activation over vehicle control, read-out: Percentage activation of beta 1 at given concentration.
With `O=C(O)c1cccc(C2CC23C(=O)Nc2cc(F)c(-c4ccc(-c5ccccc5O)cc4)cc23)c1` (centres unmarked) [Example 2], the activation at 3 µM turned out to be 60%.

With `Cc1ccc(C2CC23C(=O)Nc2cc(F)c(-c4ccc(-c5ccccc5O)cc4)cc23)cc1CC(=O)O` (centres unmarked) [Example 6], the activation at 3 µM was 66%.

As for `COc1ccc(C2CC23C(=O)Nc2cc(F)c(-c4ccc(-c5ccccc5O)cc4)cc23)cc1C(=O)O` (centres unmarked) [Example 11], the activation at 3 µM was determined as 64%.

`Cn1cc(C2CC23C(=O)Nc2cc(F)c(-c4ccc(-c5ccccc5O)cc4)cc23)cc1C(=O)O` (centres unmarked) [Example 14]: the activation at 3 µM was 48%.

Take `Cc1ccc(C2CC23C(=O)Nc2cc(Cl)c(-c4ccc(-c5ccccc5O)cn4)cc23)cc1CC(=O)O` (centres unmarked) [Example 19]: the activation at 3 µM was found to be 43%.

`Cc1ccc(C2CC23C(=O)Nc2cc(Cl)c(-c4ccc(-c5ncccc5O)cc4)cc23)cc1C(=O)O` (centres unmarked) [Example 20]: the activation at 3 µM came out at 99%.

With `Cc1ccc(C2CC23C(=O)Nc2cc(Cl)c(-c4ccc(-c5ccncc5O)cc4)cc23)cc1C(=O)O` (centres unmarked) [Example 21], the activation at 3 µM stood at 93%.

For the compound `CC(C)c1ccc(C2CC23C(=O)Nc2cc(Cl)c(-c4ccc(-c5ncccc5O)cc4)cc23)cc1C(=O)O` (centres unmarked) [Example 23], the activation at 3 µM was 63%.

Regarding `O=C(O)Cc1cccc(C2CC23C(=O)Nc2cc(Cl)c(-c4ccc(-c5ccccc5O)cc4)cc23)c1` (centres unmarked) [Example 26], the activation at 3 µM is 73%.

For `Cc1ccc(C2CC23C(=O)Nc2cc(Cl)c(-c4ccc(-c5ccccc5O)cc4)cc23)cc1C(=O)O` (centres unmarked) [Example 28], the activation at 3 µM came to 104%.

As to `O=C(O)Cc1cccc(C2CC23C(=O)Nc2cc(F)c(-c4ccc(-c5ccccc5O)cc4)cc23)c1` (centres unmarked) [Example 31], the activation at 3 µM came out at 68%.

For the compound `O=C(O)c1ccc(C2CC23C(=O)Nc2cc(Cl)c(-c4ccc(-c5ccccc5O)cc4)cc23)cc1` (centres unmarked) [Example 32], the activation at 3 µM was 39%.

For the compound `Cc1ccc(C2CC23C(=O)Nc2cc(Cl)c(-c4ccc(Cc5ccccc5O)cc4)cc23)cc1C(=O)O` (centres unmarked) [Example 34], the activation at 3 µM amounted to 47%.

Take `Cn1cc(C2CC23C(=O)Nc2cc(Cl)c(-c4ccc(-c5ccccc5O)cc4)cc23)cc1C(=O)O` (centres unmarked) [Example 43]: the activation at 3 µM worked out at 43%.

For `Cc1ccc(C2CC23C(=O)Nc2cc(Cl)c(-c4ccc(N5CCC[C@H]5CO)cc4)cc23)cc1C(=O)O` (some centres unmarked) [Example 49], the activation at 3 µM is 53%.

For `CC(C)c1ccc(C2CC23C(=O)Nc2cc(Cl)c(-c4ccc(N5CCC[C@@H]5CO)cc4)cc23)cc1C(=O)O` (some centres unmarked) [Example 50], the activation at 3 µM is 68%.

For the compound `CC(C)c1ccc(C2CC23C(=O)Nc2cc(Cl)c(-c4ccc(N5CCC[C@H]5CO)cc4)cc23)cc1C(=O)O` (some centres unmarked) [Example 51], the activation at 3 µM was found to be 34%.

For `Cc1ccc(C2CC23C(=O)Nc2cc(Cl)c(-c4ccc(-c5ccccc5C(C)(C)O)cc4)cc23)cc1C(=O)O` (centres unmarked) [Example 53], the activation at 3 µM was found to be 47%.

For `Cc1ccc(C2CC23C(=O)Nc2cc(Cl)c(-c4ccc(-c5ccncc5)cc4)cc23)cc1C(=O)O` (centres unmarked) [Example 59], the activation at 3 µM stood at 42%.

For `Cc1ccc(C2CC23C(=O)Nc2cc(Cl)c(-c4ccc(-c5ccncc5)cc4)cc23)cc1CC(=O)O` (centres unmarked) [Example 64], the activation at 3 µM was determined as 81%.

For `Cc1ccc(C2CC23C(=O)Nc2cc(Cl)c(-c4ccc(-c5ccncc5)c(F)c4)cc23)cc1C(=O)O` (centres unmarked) [Example 67], the activation at 3 µM amounted to 80%.

Take `COc1ccc(C2CC23C(=O)Nc2cc(Cl)c(-c4ccc(-c5ccncc5)cc4)cc23)cc1CC(=O)O` (centres unmarked) [Example 70]: the activation at 3 µM is 59%.

Staying with this test, now noted: 2 h, 10 μM, percentage activation over vehicle control, read-out: Percentage activation of beta 1 at given concentration.
For the compound `O=C(O)c1cccc(C2CC23C(=O)Nc2cc(F)c(-c4ccc(-c5ccccc5O)cc4)cc23)c1` (centres unmarked) [Example 1], the activation at 10 µM was determined as 102%.

As for `Cc1ccc(C2CC23C(=O)Nc2cc(F)c(-c4ccc(-c5ccccc5O)cc4)cc23)cc1CC(=O)O` (centres unmarked) [Example 3], the activation at 10 µM stood at 166%.

For `Cc1ccc(C2CC23C(=O)Nc2cc(F)c(-c4ccc(-c5ccccc5O)cc4)cc23)cc1C(=O)O` (centres unmarked) [Example 4], the activation at 10 µM worked out at 83%.

`Cc1ccc(C2CC23C(=O)Nc2cc(Cl)c(-c4ccc(-c5ccccc5O)cn4)cc23)cc1C(=O)O` (centres unmarked) [Example 8]: the activation at 10 µM was determined as 25%.

On to `Cc1ccc(C2CC23C(=O)Nc2cc(F)c(-c4ccc(-c5ccccc5O)cn4)cc23)cc1C(=O)O` (centres unmarked) [Example 9], for which the activation at 10 µM worked out at 23%.

As to `COc1ccc(C2CC23C(=O)Nc2cc(F)c(-c4ccc(-c5ccccc5O)cc4)cc23)cc1C(=O)O` (centres unmarked) [Example 10], the activation at 10 µM was found to be 40%.

Consider `COc1ccc(C2CC23C(=O)Nc2cc(F)c(-c4ccc(-c5ccccc5O)cc4)cc23)cc1CC(=O)O` (centres unmarked) [Example 12], for which the activation at 10 µM is 12%.

For the compound `Cn1cc(C2CC23C(=O)Nc2cc(F)c(-c4ccc(-c5ccccc5O)cc4)cc23)cc1C(=O)O` (centres unmarked) [Example 13], the activation at 10 µM came to 11%.

As for `Cc1ccc(C2CC23C(=O)N(C)c2cc(F)c(-c4ccc(-c5ccccc5O)cc4)cc23)cc1C(=O)O` (centres unmarked) [Example 15], the activation at 10 µM came out at 176%.

For the compound `CC(C)c1ccc(C2CC23C(=O)Nc2cc(Cl)c(-c4ccc(-c5ccncc5O)cc4)cc23)cc1C(=O)O` (centres unmarked) [Example 22], the activation at 10 µM worked out at 271%.

For `CC(C)c1ccc(C2CC23C(=O)Nc2cc(Cl)c(-c4ccc(-c5ccccc5O)cn4)cc23)cc1C(=O)O` (centres unmarked) [Example 24], the activation at 10 µM was determined as 85%.

Take `Cc1ccc(C2CC23C(=O)Nc2cc(Cl)c(-c4ccc(O)cc4)cc23)cc1C(=O)O` (centres unmarked) [Example 29]: the activation at 10 µM came to 40%.

Consider `Cc1ccc(C2CC23C(=O)N(C)c2cc(Cl)c(-c4ccc(-c5ncccc5O)cc4)cc23)cc1C(=O)O` (centres unmarked) [Example 36], for which the activation at 10 µM was 39%.

In the case of `CC(C)c1ccc(C2CC23C(=O)N(C)c2cc(Cl)c(-c4ccc(-c5ncccc5O)cc4)cc23)cc1C(=O)O` (centres unmarked) [Example 37], the activation at 10 µM is 112%.

On to `CCn1cc(C2CC23C(=O)Nc2cc(Cl)c(-c4ccc(-c5ccccc5O)cc4)cc23)cc1C(=O)O` (centres unmarked) [Example 39], for which the activation at 10 µM worked out at 28%.

With `Cc1ccc(C2CC23C(=O)N(C)c2cc(Cl)c(-c4ccc(-c5ccncc5O)cc4)cc23)cc1C(=O)O` (centres unmarked) [Example 41], the activation at 10 µM stood at 29%.

With `Cn1c(C(=O)O)ccc1C1CC12C(=O)Nc1cc(Cl)c(-c3ccc(-c4ccccc4O)cc3)cc12` (centres unmarked) [Example 42], the activation at 10 µM was 42%.

With `Cc1ccc(C2CC23C(=O)Nc2cc(Cl)c(-c4ccc5c(ccn5CCO)c4)cc23)cc1C(=O)O` (centres unmarked) [Example 47], the activation at 10 µM was found to be 72%.

As for `O=C(O)Cc1cccc(C2CC23C(=O)Nc2cc(Cl)c(-c4ccc(C5(CO)CC5)cc4)cc23)c1` (centres unmarked) [Example 48], the activation at 10 µM turned out to be 74%.

For `CC(C)c1ccc(C2CC23C(=O)Nc2cc(Cl)c(-c4ccc(OCCO)cc4)cc23)cc1C(=O)O` (centres unmarked) [Example 52], the activation at 10 µM turned out to be 51%.

On to `Cn1ccc2cc(-c3cc4c(cc3F)NC(=O)C43CC3c3cccc(CC(=O)O)c3)ccc21` (centres unmarked) [Example 56], for which the activation at 10 µM came to 79%.

On to `Cc1ccc(C2CC23C(=O)Nc2cc(F)c(-c4ccc(N5CCOCC5)cc4)cc23)cc1C(=O)O` (centres unmarked) [Example 57], for which the activation at 10 µM was 89%.

With `Cc1ccc(C2CC23C(=O)Nc2cc(Cl)c(-c4ccc(-c5cccnc5)cc4)cc23)cc1C(=O)O` (centres unmarked) [Example 62], the activation at 10 µM was determined as 86%.

As for `O=C(O)Cc1cccc(C2CC23C(=O)Nc2cc(Cl)c(-c4ccc(-c5cccnc5)cc4)cc23)c1` (centres unmarked) [Example 65], the activation at 10 µM was found to be 89%.

On to `Cc1ccc(C2CC23C(=O)Nc2cc(Cl)c(-c4ccc(N5CCOCC5)cc4)cc23)cc1C(=O)O` (centres unmarked) [Example 66], for which the activation at 10 µM was 36%.

In the case of `Cc1ccc(C2CC23C(=O)Nc2cc(Cl)c(-c4ccc(N5CCOCC5)c(F)c4)cc23)cc1C(=O)O` (centres unmarked) [Example 71], the activation at 10 µM came to 40%.
